Experiments:
[1] = target: T1, unphosphorylated c-FMS kinase (uFMS, Seq. ID no. 1) (Homo sapiens, UniProt P07333); assay: uFMS kinase enzymatic assay (pyruvate kinase/lactate dehydrogenase coupled); format: biochemical; conditions: ATP 500 μM, rate 3 to 4 h
T1 construct: purchased Millipore
T1 sequence (P07333 538-972): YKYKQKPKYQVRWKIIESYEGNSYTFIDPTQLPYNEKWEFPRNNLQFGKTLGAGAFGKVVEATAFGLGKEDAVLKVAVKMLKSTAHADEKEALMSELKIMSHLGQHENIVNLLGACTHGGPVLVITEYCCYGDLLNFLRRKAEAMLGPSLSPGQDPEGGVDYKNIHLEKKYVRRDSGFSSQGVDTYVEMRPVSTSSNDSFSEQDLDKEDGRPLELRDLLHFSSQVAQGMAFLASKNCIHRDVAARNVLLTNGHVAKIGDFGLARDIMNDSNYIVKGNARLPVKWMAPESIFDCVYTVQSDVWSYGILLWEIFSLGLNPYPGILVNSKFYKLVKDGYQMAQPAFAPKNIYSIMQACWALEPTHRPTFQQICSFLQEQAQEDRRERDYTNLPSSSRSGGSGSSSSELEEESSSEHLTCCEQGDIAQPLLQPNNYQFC
Protocol: uFMS Kinase (Seq. ID No. 1) Assay
Activity of unphosphorylated c-FMS kinase (uFMS, Seq. ID no. 1) was determined by following the production of ADP from the FMS kinase reaction with ATP and poly E4Y as substrates through coupling with the pyruvate kinase/lactate dehydrogenase system (e.g., Schindler et al. Science (2000) 289: 1938-1942). In this assay, the oxidation of NADH (thus the decrease at A340 nm) was continuously monitored spectrophometrically. The reaction mixture (100 μL) contained FMS (purchased from Millipore) (10 nM), polyE4Y (1 mg/mL), MgCl2 (10 mM), pyruvate kinase (4 units), lactate dehydrogenase (0.7 units), phosphoenol pyruvate (1 mM), NADH (0.28 mM) and ATP (500 μM) in 90 mM Tris buffer containing 0.2% octyl-glucoside and 1% DMSO, pH 7.5. The inhibition reaction was started by mixing serial diluted test compound with the above reaction mixture. The absorption at 340 nm was monitored continuously for 4 hours at 30° C. on Synergy 2 plate reader. The reaction rate was calculated using the 3 to 4 h time frame. Percent inhibition was obtained by comparison of reaction rate with that of a control (i.e. in the absence of test compound). IC50 values were calculated from a series of percent inhibition values determined at a range of inhibitor concentrations using software routines as implemented in the GraphPad Prism software package.

[2] = target: T2, unphosphorylated c-KIT kinase (uKIT, Seq. ID no. 2) (Homo sapiens, UniProt P10721); assay: uKit kinase enzymatic assay (pyruvate kinase/lactate dehydrogenase coupled); format: biochemical; conditions: ATP 2000 μM, rate 3 to 4 h
T2 construct: uKit with N-terminal GST fusion used for screening
T2 sequence (P10721 with tags, fused parts or gaps): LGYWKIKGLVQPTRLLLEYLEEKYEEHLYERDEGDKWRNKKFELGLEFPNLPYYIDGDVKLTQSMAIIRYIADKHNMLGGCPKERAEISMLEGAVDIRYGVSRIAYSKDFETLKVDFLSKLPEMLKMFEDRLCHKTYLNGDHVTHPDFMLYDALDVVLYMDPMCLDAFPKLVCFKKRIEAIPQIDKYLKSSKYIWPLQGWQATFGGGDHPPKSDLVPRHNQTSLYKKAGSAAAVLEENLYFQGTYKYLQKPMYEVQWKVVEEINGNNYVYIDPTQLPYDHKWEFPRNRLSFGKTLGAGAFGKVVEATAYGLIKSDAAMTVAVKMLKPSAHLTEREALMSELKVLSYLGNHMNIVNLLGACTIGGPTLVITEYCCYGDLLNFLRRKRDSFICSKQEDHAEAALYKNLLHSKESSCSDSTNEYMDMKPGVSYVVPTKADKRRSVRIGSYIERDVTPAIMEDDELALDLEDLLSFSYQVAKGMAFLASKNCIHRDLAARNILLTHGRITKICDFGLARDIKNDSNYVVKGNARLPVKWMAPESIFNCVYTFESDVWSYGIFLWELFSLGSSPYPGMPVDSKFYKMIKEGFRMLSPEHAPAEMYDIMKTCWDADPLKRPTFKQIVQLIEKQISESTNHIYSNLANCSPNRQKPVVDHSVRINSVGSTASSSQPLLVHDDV
Protocol: uKit Kinase (Seq. ID No. 2) Assay
Activity of unphosphorylated c-KIT kinase (uKIT, Seq. ID no. 2) was determined by following the production of ADP from the KIT kinase reaction with ATP and poly E4Y as substrates through coupling with the pyruvate kinase/lactate dehydrogenase system (e.g., Schindler et al. Science (2000) 289: 1938-1942). In this assay, the oxidation of NADH (thus the decrease at A340 nm) was continuously monitored spectrophometrically. The reaction mixture (100 μl) contained unphosphorylated KIT (12 nM), polyE4Y (1 mg/mL), MgCl2 (10 mM), pyruvate kinase (4 units), lactate dehydrogenase (0.7 units), phosphoenol pyruvate (1 mM), and NADH (0.28 mM) and ATP (2000 μM) in 90 mM Tris buffer containing 0.2% octyl-glucoside and 1% DMSO, pH 7.5. The inhibition reaction was started by mixing serial diluted test compound with the above reaction mixture. The absorption at 340 nm was monitored continuously for 4 hours at 30° C. on Synergy 2 plate reader (BioTech). Reaction rates around 3 to 4 h time frame were used to calculate % inhibitions, from which IC50 values were generated.

[3] = target: T3, unphosphorylated PDGFRβ kinase (uPDGFRβ, Seq. ID No. 3) (Homo sapiens, UniProt P09619); assay: uPDGFRβ kinase enzymatic assay (pyruvate kinase/lactate dehydrogenase coupled); format: biochemical; conditions: ATP 500 μM, rate 1.5 to 2.5 h
T3 construct: purchased DeCode
T3 sequence (P09619 557-1106): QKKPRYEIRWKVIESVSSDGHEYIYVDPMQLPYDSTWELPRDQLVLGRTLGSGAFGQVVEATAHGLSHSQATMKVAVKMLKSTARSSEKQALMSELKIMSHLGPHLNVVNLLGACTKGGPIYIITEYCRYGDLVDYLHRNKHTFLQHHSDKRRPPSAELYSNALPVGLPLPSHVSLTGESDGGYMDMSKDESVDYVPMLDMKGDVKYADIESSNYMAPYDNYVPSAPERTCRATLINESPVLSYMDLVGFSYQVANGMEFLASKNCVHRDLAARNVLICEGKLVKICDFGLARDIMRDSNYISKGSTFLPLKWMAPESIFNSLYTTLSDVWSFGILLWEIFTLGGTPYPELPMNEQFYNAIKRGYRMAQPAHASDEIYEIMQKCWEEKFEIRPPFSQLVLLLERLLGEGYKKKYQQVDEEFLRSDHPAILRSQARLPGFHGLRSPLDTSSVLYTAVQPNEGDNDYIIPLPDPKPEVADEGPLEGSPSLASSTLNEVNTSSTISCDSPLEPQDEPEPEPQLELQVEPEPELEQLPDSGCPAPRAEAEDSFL
Protocol: Unphosphorylated PDGFRβ (uPDGFRβ) Kinase (Seq. ID No. 3) Assay
Activity of unphosphorylated PDGFRβ kinase (uPDGFRβ, Seq. ID No. 3) was determined by following the production of ADP from the kinase reaction with ATP and poly E4Y as substrates through coupling with the pyruvate kinase/lactate dehydrogenase system (e.g., Schindler et al. Science (2000) 289: 1938-1942). In this assay, the oxidation of NADH (thus the decrease at A340 nm) was continuously monitored spectrophometrically. The reaction mixture (100 μL) contained PDGFRβ (DeCode, 15.7 nM), polyE4Y (2.5 mg/mL), MgCl2 (10 mM), pyruvate kinase (4 units), lactate dehydrogenase (0.7 units), phosphoenol pyruvate (1 mM) and NADH (0.28 mM) and ATP (500 μM) in a 90 mM Tris buffer containing 0.2% octyl-glucoside and 1% DMSO, at pH 7.5. The inhibition reaction was started by mixing serial diluted test compound with the above reaction mixture. The absorption at 340 nm was monitored continuously for 4 h at 30° C. on a Polarstar Optima or Synergy 2 plate reader. The reaction rate was calculated using the 1.5 to 2.5 h time frame. Percent inhibition was obtained by comparison of reaction rate with that of a control (i.e. with no test compound). IC50 values were calculated from a series of percent inhibition values determined at a range of inhibitor concentrations using software routines as implemented in the GraphPad Prism software package.

M-NFS-60 cells = assay: M-NFS-60 cell proliferation assay (resazurin); format: cell-based; conditions: 67 h incubation
Protocol: M-NFS-60 cells (catalog #CRL-1838) were obtained from the American Type Culture Collection (ATCC, Manassas, Va.). Briefly, cells were grown in suspension in RPMI 1640 medium supplemented with 10% characterized fetal bovine serum (Invitrogen, Carlsbad, Calif.), 0.05 mM 2-mercaptoethanol, and 20 ng/mL mouse recombinant macrophage colony stimulating factor (M-CSF) at 37° C., 5% CO2, and 95% humidity. Cells were allowed to expand until reaching saturation at which point they were subcultured or harvested for assay use.
M-NFS-60 Cell Proliferation Assay
A serial dilution of test compound was dispensed into a 384-well black clear bottom plate (Corning, Corning, N.Y.). Two thousand five hundred cells were added per well in 50 μL complete growth medium. Plates were incubated for 67 h at 37° C., 5% CO2, and 95% humidity. At the end of the incubation period 10 μL of a 440 μM solution of resazurin (Sigma, St. Louis, Mo.) in PBS was added to each well and incubated for an additional 5 h at 37° C., 5% CO2, and 95% humidity. Plates were read on a Synergy2 reader (Biotek, Winooski, Vt.) using an excitation of 540 nm and an emission of 600 nm. IC50 values were calculated from a series of percent inhibition values determined at a range of inhibitor concentrations using software routines as implemented in the GraphPad Prism software package.

osteoclast precursors = assay: Osteoclast tartrate-resistant acid phosphatase assay; format: cell-based; conditions: RANKL and M-CSF, 7-14 days, tartrate-resistant acid phosphatase activity
Protocol: Osteoclast Tartrate-Resistant Acid Phosphatase Assay
A serial dilution of test compound was dispensed into a 384-well black clear bottom plate (Nalge Nunc International, Rochester, N.Y.). Compound was diluted by the addition of DMEM media supplemented with 10% characterized fetal bovine serum (Invitrogen, Carlsbad, Calif.). Diluted compound was transferred to a 384-well black clear bottom plate. Two-thousand five hundred osteoclast precursors (Lonza, Walkersville, Md.) were added per well in growth media containing Receptor Activator of Nuclear Factor Kappa-beta ligand (RANKL) and M-CSF (R&D Systems, Minneapolis, Minn.). Plates were incubated for 7-14 days at 37 degrees Celsius, 5% CO2, and 95% humidity to allow differentiation of osteoclast precursors. At the end of the incubation period, 10 μL of supernatant from each well was transferred to a clear 384-well plate. Tartrate-resistant acid phosphatase activity in the supernatant samples was determined using an acid phosphatase assay kit (Sigma, St. Louis, Mo.). Absorbance was measured at 550 nm using a plate reader. Data was analyzed using Prism software (Graphpad, San Diego, Calif.) to calculate IC50 values.

Row | SMILES | IC50 [1] [nM] | IC50 [2] [nM] | IC50 [3] [nM] | IC50 (M-NFS-60 cells) [nM] | IC50 (osteoclast precursors) [nM]
1 | Cc1nc(-n2nc(-c3ccc(F)cc3)[nH]c2=O)ccc1Oc1ccnc(-c2cnn(C)c2)c1 [Example 28, 3-(4-fluorophenyl)-1-(6-methyl-5-((2-(1-methyl-1H-pyrazol-4-yl)pyridin-4-yl)oxy)pyridin-2-yl)-1H-1,2,4-triazol-5(4H)-one] | ≤ 10 | 10 to 100 | > 1000 | 10 to 100 | 10 to 100
2 | Cc1cn(-c2cc(Oc3ccc(-n4nc(-c5ccc(F)cc5)[nH]c4=O)nc3C)ccn2)cn1 [Example 29, 3-(4-fluorophenyl)-1-(6-methyl-5-((2-(4-methyl-1H-imidazol-1-yl)pyridin-4-yl)oxy)pyridin-2-yl)-1H-1,2,4-triazol-5(4H)-one] | 10 to 100 | 100 to 1000 | > 1000 | 100 to 1000 | 100 to 1000
3 | Cc1nc(-n2nc(-c3ccc(F)cc3)[nH]c2=O)ccc1Oc1ccnc(NC(=O)C2CC2)c1 [Example 32, N-(4-((6-(3-(4-fluorophenyl)-5-oxo-4,5-dihydro-1H-1,2,4-triazol-1-yl)-2-methylpyridin-3-yl)oxy)pyridin-2-yl)cyclopropanecarboxamide] | 10 to 100 | 10 to 100 | 100 to 1000 | 100 to 1000 | 100 to 1000
4 | Cc1nc(-n2nc(C3CCCC3)[nH]c2=O)ccc1Oc1ccnc(-c2cnn(C)c2)c1 [Example 34, 3-cyclopentyl-1-(6-methyl-5-((2-(1-methyl-1H-pyrazol-4-yl)pyridin-4-yl)oxy)pyridin-2-yl)-1H-1,2,4-triazol-5(4H)-one] | ≤ 10 | ≤ 10 | 10 to 100 | ≤ 10 | 10 to 100
5 | Cc1nc(-n2nc(C3CC3)[nH]c2=O)ccc1Oc1ccnc(-c2cnn(C)c2)c1 [Example 35, 3-cyclopropyl-1-(6-methyl-5-((2-(1-methyl-1H-pyrazol-4-yl)pyridin-4-yl)oxy)pyridin-2-yl)-1H-1,2,4-triazol-5(4H)-one] | 100 to 1000 | 100 to 1000 | > 1000 | > 1000 | 100 to 1000
6 | Cc1nc(-n2nc(C(C)(C)C)[nH]c2=O)ccc1Oc1ccnc(-c2ccc(N3CCN(C)CC3)nc2)c1 [Example 40, 3-(tert-butyl)-1-(6-methyl-5-((6′-(4-methylpiperazin-1-yl)-[2,3′-bipyridin]-4-yl)oxy)pyridin-2-yl)-1H-1,2,4-triazol-5(4H)-one] | 10 to 100 | 100 to 1000 | > 1000 | 10 to 100 | 10 to 100
7 | Cc1nc(-n2nc(C(C)(C)C)[nH]c2=O)ccc1Oc1ccnc(-c2ccnc(N3CCN(C)CC3)c2)c1 [Example 41, 3-(tert-butyl)-1-(6-methyl-5-((2′-(4-methylpiperazin-1-yl)-[2,4′-bipyridin]-4-yl)oxy)pyridin-2-yl)-1H-1,2,4-triazol-5(4H)-one] | 100 to 1000 | > 1000 | > 1000 | > 1000 | 100 to 1000
8 | Cc1nc(-n2nc(C(C)(C)CO)[nH]c2=O)ccc1Oc1ccnc(-c2cnn(C)c2)c1 [Example 42, 3-(1-hydroxy-2-methylpropan-2-yl)-1-(6-methyl-5-((2-(1-methyl-1H-pyrazol-4-yl)pyridin-4-yl)oxy)pyridin-2-yl)-1H-1,2,4-triazol-5(4H)-one] | 10 to 100 | > 1000 | > 1000 | > 1000 | 100 to 1000
9 | COC(C)(C)c1nn(-c2cc(C)c(Oc3ccnc(NC(C)=O)c3)cn2)c(=O)[nH]1 [Example 44, N-(4((6-(3-(2-methoxypropan-2-yl)-5-oxo-4,5-dihydro-1H-1,2,4-triazol-1-yl)-4-methylpyridin-3-yl)oxy)pyridin-2-yl)acetamide] | 100 to 1000 | 100 to 1000 | 100 to 1000 | 100 to 1000 | 100 to 1000
10 | Cc1nc(-n2nc(C(C)(C)C)[nH]c2=O)ccc1Oc1ccnc(NC(=O)C2CC2)c1 [Example 45, N-(4-((6-(3-(tert-butyl)-5-oxo-4,5-dihydro-1H-1,2,4-triazol-1-yl)-2-methylpyridin-3-yl)oxy)pyridin-2-yl)cyclopropanecarboxamide] | 100 to 1000 | > 1000 | > 1000 | 100 to 1000 | 10 to 100

— patent US9193719B2, “1,2,4-triazol-5-ones and analogs exhibiting anti-cancer and anti-proliferative activities” (Deciphera Pharmaceuticals, LLC, priority 2013, dated 2015)
